Measured values published in ChEMBL document CHEMBL3232931 (J Med Chem, 2014).
Calls of active or inactive are those of the source. The calls are words filed in the database; no cut-off is given here.

Experiments:
SARS-CoV = test: Antiviral activity against SARS coronavirus infected in african green monkey Vero E6 cells assessed as cell viability after 48 hrs by Cell Titer-Glo luminescent assay; assay type: functional, organism-based; details: Severe acute respiratory syndrome-related coronavirus
[1] = (§1) Inhibition of SARS coronavirus papain-like protease (amino acids 1541 to 1855) expressed in Escherichia coli BL21 (DE3) cells assessed as decrease in AMC release using Z-RLRGG-AMC as substrate by multimode plate reader analysis; parameters: species or system Severe acute respiratory syndrome-related coronavirus
BL21-DE3 [2] = test: as §1; details: Severe acute respiratory syndrome-related coronavirus
[3] = molecular target: Replicase polyprotein 1a (Human coronavirus NL63) (UniProt P0C6U6); test: (§2) Inhibition of human coronavirus NL63 PLP2 (amino acids 1565 to 1894) expressed in Escherichia coli BL21 (DE3) cells assessed as reduction of AMC release using Z-RLRGG-AMC as substrate by multimode plate reader analysis
Target sequence in this assay (P0C6U6 899-2462 limits assumed): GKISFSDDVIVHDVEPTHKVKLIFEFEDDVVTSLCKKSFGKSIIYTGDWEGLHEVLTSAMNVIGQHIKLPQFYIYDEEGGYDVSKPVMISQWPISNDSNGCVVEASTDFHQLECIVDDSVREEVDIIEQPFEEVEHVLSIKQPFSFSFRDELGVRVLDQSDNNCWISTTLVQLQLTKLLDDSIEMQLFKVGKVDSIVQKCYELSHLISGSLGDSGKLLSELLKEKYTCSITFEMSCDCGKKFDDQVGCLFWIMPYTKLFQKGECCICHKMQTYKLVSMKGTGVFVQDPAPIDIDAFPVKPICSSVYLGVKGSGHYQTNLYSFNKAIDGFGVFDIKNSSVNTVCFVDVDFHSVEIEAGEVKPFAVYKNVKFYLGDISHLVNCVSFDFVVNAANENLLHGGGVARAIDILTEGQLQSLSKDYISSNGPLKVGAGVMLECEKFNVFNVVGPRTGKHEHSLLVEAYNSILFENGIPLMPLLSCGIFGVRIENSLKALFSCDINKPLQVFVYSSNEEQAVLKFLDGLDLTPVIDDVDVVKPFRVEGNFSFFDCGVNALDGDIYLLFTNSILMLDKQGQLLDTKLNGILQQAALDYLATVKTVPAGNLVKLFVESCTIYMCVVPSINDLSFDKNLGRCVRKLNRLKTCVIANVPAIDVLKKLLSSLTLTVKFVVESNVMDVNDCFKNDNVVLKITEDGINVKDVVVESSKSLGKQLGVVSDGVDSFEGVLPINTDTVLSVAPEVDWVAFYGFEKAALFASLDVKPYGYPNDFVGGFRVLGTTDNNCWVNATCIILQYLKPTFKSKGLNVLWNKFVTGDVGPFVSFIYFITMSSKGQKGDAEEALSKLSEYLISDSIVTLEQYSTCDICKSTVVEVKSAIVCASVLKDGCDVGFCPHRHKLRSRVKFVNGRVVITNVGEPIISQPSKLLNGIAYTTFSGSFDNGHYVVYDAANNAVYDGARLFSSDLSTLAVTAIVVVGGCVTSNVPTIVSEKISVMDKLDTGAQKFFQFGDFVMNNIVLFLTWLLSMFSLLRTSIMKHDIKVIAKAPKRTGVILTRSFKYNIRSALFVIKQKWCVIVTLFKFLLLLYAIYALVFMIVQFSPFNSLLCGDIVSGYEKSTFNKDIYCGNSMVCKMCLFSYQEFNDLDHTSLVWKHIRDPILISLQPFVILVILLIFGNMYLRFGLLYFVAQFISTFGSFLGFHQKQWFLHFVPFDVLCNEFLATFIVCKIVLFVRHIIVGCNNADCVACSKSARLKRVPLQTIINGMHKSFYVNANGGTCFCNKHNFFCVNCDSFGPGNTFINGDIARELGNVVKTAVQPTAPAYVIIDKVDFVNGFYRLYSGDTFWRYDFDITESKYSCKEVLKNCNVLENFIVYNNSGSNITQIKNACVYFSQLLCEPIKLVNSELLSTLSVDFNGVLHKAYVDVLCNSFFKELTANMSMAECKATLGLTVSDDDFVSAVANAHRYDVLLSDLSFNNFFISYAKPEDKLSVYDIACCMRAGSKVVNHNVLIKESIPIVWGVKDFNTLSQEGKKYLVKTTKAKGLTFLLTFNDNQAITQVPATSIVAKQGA

Replicase polyprotein 1a = Replicase polyprotein 1a (Human coronavirus NL63, UniProt P0C6U6); test: as §2
[4] = molecular target: Replicase polyprotein 1a (Human coronavirus NL63) (UniProt P0C6U6); test: Inhibition of human coronavirus NL63 PLP2 (amino acids 1565 to 1894) expressed in Escherichia coli BL21 (DE3) cells assessed as reduction of AMC release using Z-RLRGG-AMC as substrate at 100 uM by multimode plate reader analysis
[5] = Metabolic stability in mouse liver microsomes assessed as parent compound remaining at 1 uM after 15 mins; assay type: ADME; details: read-out: Stability
Liver = test: Half life in mouse liver microsomes at 1 uM; assay type: ADME
[6] = Cytotoxicity against african green monkey Vero E6 cells assessed as cell viability after 48 hrs by Cell Titer-Glo luminescent assay; assay type: cell-based; details: chlorocebus sabaeus
BL21-DE3 [7] = test: Inhibition of SARS coronavirus papain-like protease (amino acids 1541 to 1855) expressed in Escherichia coli BL21 (DE3) cells assessed as decrease in AMC release using Z-RLRGG-AMC as substrate by serum shift assay based multimode plate reader analysis in presence of 5 to 20% human serum albumin; details: Severe acute respiratory syndrome-related coronavirus
HEK293 = test: Cytotoxicity against human HEK293 cells assessed as cell viability after 48 hrs by Cell Titer-Glo luminescent assay; assay type: cell-based; details: hek293, 48 h
[8] = Therapeutic index, ratio of CC50 for african green monkey Vero E6 cells to EC50 for SARS coronavirus infected in african green monkey Vero E6 cells; assay type: cell-based; details: read-out: Ratio CC50/EC50

Replicase polyprotein 1a, sequence (P0C6U6 899-2462 limits assumed): as above

| SMILES | IC50 [1] [µM] | also measured |
| --- | --- | --- |
| CC(c1cccc2cccnc12)N1CCC(C(=O)NCc2cccc(F)c2)CC1 (racemic) | 7 | EC50 (SARS-CoV): > 50 µM |
| C[C@H](c1cccc2ccccc12)N1CCC(C(=O)NCc2cccc(Cl)c2)CC1 | 27.2 |  |
| CC(c1cccc2cnccc12)N1CCC(C(=O)NCc2cccc(F)c2)CC1 (racemic) | 6.8 | EC50 (SARS-CoV): > 50 µM |
| CNC(=O)c1ccc(CNC(=O)C2CCN([C@H](C)c3cccc4ccccc34)CC2)cc1 | 0.6 |  |
| CC(=O)Nc1ccc(CNC(=O)C2CCN([C@H](C)c3cccc4ccccc34)CC2)cc1 | 5.7 | Imax (BL21-DE3 [2]): 94%; Imax [3]: 42%; IC50 (Replicase polyprotein 1a): 37 µM; inhibition [4]: > 30% |
| C[C@H](NC(=O)C1CCN([C@H](C)c2cccc3ccccc23)CC1)c1ccccc1 | 12.7 |  |
| CCc1ccc(CNC(=O)C2CCN([C@H](C)c3cccc4ccccc34)CC2)cc1 | 0.47 |  |
| COc1cc(CNC(=O)C2CCN([C@H](C)c3cccc4ccccc34)CC2)ccn1 | 0.35 | EC50 (SARS-CoV): 9.5 µM; remaining at 0.25 h, 1 µM [5]: 30%; t1/2 (Liver): 8 min; Imax (BL21-DE3 [2]): 100%; Imax [3]: 67%; IC50 (Replicase polyprotein 1a): 59 µM; inhibition [4]: > 30%; CC50 [6]: > 100 µM; inhibition (BL21-DE3 [7]): Active; CC50 (HEK293): > 100 µM |
| C[C@H](c1cccc2ccccc12)N1CCC(C(=O)NCc2ccccc2)CC1 | 2.2 | EC50 (SARS-CoV): > 50 µM |
| C[C@H](c1cccc2ccccc12)N1CCC(C(=O)NCc2cccnc2)CC1 | 26.3 |  |
| C[C@H](c1cccc2ccccc12)N1CCC(C(=O)N[C@H](C)c2ccccc2)CC1 | 13.5 |  |
| C[C@H](c1cccc2ccccc12)N1CCC(C(=O)NCc2ccncc2)CC1 | 18.3 |  |
| C[C@H](c1cccc2ccccc12)N1CCC(C(=O)NCc2ccc(F)c(F)c2)CC1 | 29.2 | Imax (BL21-DE3 [2]): 78%; Imax [3]: 48%; IC50 (Replicase polyprotein 1a): 44 µM; inhibition [4]: > 30% |
| C[C@H](c1cccc2ccccc12)N1CCC(C(=O)NCCc2cccc(F)c2)CC1 | 1.9 |  |
| CNC(=O)c1cccc(CNC(=O)C2CCN([C@H](C)c3cccc4ccccc34)CC2)c1 | 0.63 |  |
| C[C@H](c1cccc2ccccc12)N1CCC(C(=O)NCCc2ccc(Cl)cc2)CC1 | 1.6 |  |
| O=C(NCc1ccc2c(c1)OCO2)C1CCN(C(Cc2ccccc2)c2cccc3ccccc23)CC1 (racemic) | > 100 |  |
| CC(c1cccc2ncccc12)N1CCC(C(=O)NCc2cccc(F)c2)CC1 (racemic) | 4.5 |  |
| CC(c1nccc2ccccc12)N1CCC(C(=O)NCc2cccc(F)c2)CC1 (racemic) | 30.8 |  |
| COCC(c1cccc2ccccc12)N1CCC(C(=O)NCc2ccc3c(c2)OCO3)CC1 (racemic) | > 100 |  |
| O=C(NCc1ccc2c(c1)OCO2)C1CCN(C(CO)c2cccc3ccccc23)CC1 (racemic) | 32 |  |
| COC[C@@H](NC(=O)C1CCN([C@H](C)c2cccc3ccccc23)CC1)c1ccccc1 | 1.9 | EC50 (SARS-CoV): 11.7 µM; selectivity ratio [8]: > 8.5; CC50 [6]: > 100 µM; inhibition (BL21-DE3 [7]): Active; CC50 (HEK293): > 100 µM |
| O=C(NCc1cccc(F)c1)C1CCN(C2CCCc3ccc4ccccc4c32)CC1 (stereo not drawn) | 5.1 |  |
| CCC(c1cccc2ccccc12)N1CCC(C(=O)NCc2ccc3c(c2)OCO3)CC1 (racemic) | 17.2 |  |
| C[C@H](c1cccc2ccccc12)N1CCC(C(=O)NCc2ccc(Cl)cc2)CC1 | 0.58 |  |
| CC(=O)NCc1cccc(CNC(=O)C2CCN([C@H](C)c3cccc4ccccc34)CC2)c1 | 20.4 |  |
| COC[C@H](NC(=O)C1CCN([C@H](C)c2cccc3ccccc23)CC1)c1ccccc1 | 18 |  |
